Measured values reported in US20150148235A1, “HERBICIDE-RESISTANT SUNFLOWER PLANTS WITH MULTIPLE HERBICIDE RESISTANT ALLELES OF AHASL1 AND METHODS OF USE” (NIDERA S.A., priority 2013, published 2015).

Tests used:
[1] = system: AHAS enzyme, A122T Homozygous sunflower; experiment: AHAS enzyme activity assay, leaf extract; assay type: biochemical, Helianthus annuus
Description: (§1) Twelve greenhouse grown sunflower plants from each of the lines depicted in Table 21 were bulked and subjected to an AHAS enzyme activity assay via the method of Singh et al. (1988) Anal. Biochem. 171:173-179. Each activity assay was repeated twice. Due to the large number of samples, the experiment was split into two sets (Table 21).
(§2) Young, actively growing leaves, from four week old plantlets, were ground in a mortar and pestle with liquid N2 and extracted with a buffer composed of 100 mM Pyruvate, 200 mM KH2PO4, 20 mM MgCl2, 2 mM thiamine pyrophosphate and […]. Plant extracts were then spun through a 10 mL Zeba TM desalt spin column (Pierce #89893) as per the manufacturer's recommendation. The inhibition assay was performed as described by Singh et al. (1988) Anal. Biochem. 171:173-179. Assays were conducted in a 96-well format. Fifty μl of inhibitor was added to each well containing 50 μl of soluble protein extract to give final concentrations of 0.78, 1.56, 3.125, 6.25, 12.5, 25, 50 and 100 μM imazamox or 0.78, 1.56, 3.125, 6.25, 12.5, 25, 50 and 100 μM imazapyr. Zero herbicide controls were also included for each line. Reactions were processed as outlined by Singh et al. (1988) Anal. Biochem. 171:173-179. Absorbance was measured at 530 nm. AHAS activity, expressed as the mean of the absorbance values for each treatment, was presented as a percentage of the mean of the zero-herbicide controls.

[2] = system: AHAS enzyme, A122T/A205V Heterozygous sunflower; experiment: AHAS enzyme activity assay, leaf extract; assay type: biochemical, Helianthus annuus; details: A122T/A205V heterozygous hybrid (Set 1); 100 μM
Description: as §1, §2

[3] = system: AHAS enzyme, A205V Homozygous sunflower; experiment: AHAS enzyme activity assay, leaf extract; assay type: biochemical, Helianthus annuus
Description: as §1, §2

[4] = system: sunflower hybrids and lines (A122T, A205V, A205V/A122T); experiment: Field trial North Dakota 2006, phytotoxicity ratings after imazamox or imazapyr, Example 3; assay type: in vivo, Helianthus annuus
Description: • Spray volume: 10 gallons per acre (GPA) (or 100 liters/ha) for backpack sprayer or 20 GPA (or 200 liters/ha) for tractor mounted boom • Growth Stage at Herbicide Application: 2-4 leaves
Entry 15 (WT Maintainer line) was left unsprayed in all treatment blocks.
Phytotoxicity ratings were assessed at 7 and 21 days following herbicide application.
The data was subjected to an ANOVA analysis and the means from the 3 repetitions are presented in Table 7 (phytotoxicity at 7 days post-treatment) and Table 8 (phytotoxicity at 21 days post-treatment).

Q: For `COCc1cnc(C2=NC(C)(C(C)C)C(=O)N2)c(C(=O)O)c1` (centres unmarked) [imazamox], which AHAS activity ([1]; A122T homozygous (Set 2), 50 μM) is on record?
A: 63 % relative to the untreated co

Q: What about the AHAS activity ([1]; A122T homozygous (Set 2), 100 μM) of the same compound?
A: 60 % relative to the untreated co

Q: What about the AHAS activity ([1]; A122T homozygous hybrid (Set 1), 100 μM) of the same compound?
A: 69 % of untreated control

Q: What about the AHAS activity [2] of the same compound?
A: 59%

Q: What about the AHAS activity ([3]; A205V homozygous (Set 2), 50 μM) of the same compound?
A: 30%

Q: What about the AHAS activity ([3]; A205V homozygous (Set 2), 100 μM) of the same compound?
A: 26%

Q: And the AHAS activity ([3]; A205V homozygous hybrid (Set 1), 100 μM)?
A: 36 % of untreated control

Q: And the “Phytotoxicity Rating (% Crop Injury)” value ([4]; 1-hybrid (WT × IMI restorer, A205 hetero), 50 g ai/ha + 0.25% NIS, 7 DAT)?
A: 8.3%

Q: And the “Phytotoxicity Rating (% Crop Injury)” value ([4]; 1-hybrid (WT × IMI restorer, A205 hetero), 50 g ai/ha + 0.25% NIS, 21 DAT)?
A: 6.7%

Q: And the “Phytotoxicity Rating (% Crop Injury)” value ([4]; 1-hybrid (WT × IMI restorer, A205 hetero), 100 g ai/ha + 0.25% NIS, 7 DAT)?
A: 35.0%

Q: What about the “Phytotoxicity Rating (% Crop Injury)” value ([4]; 1-hybrid (WT × IMI restorer, A205 hetero), 100 g ai/ha + 0.25% NIS, 21 DAT) of the same compound?
A: 25.0%

Q: And the “Phytotoxicity Rating (% Crop Injury)” value ([4]; 1-hybrid (WT × IMI restorer, A205 hetero), 200 g ai/ha + 0.25% NIS, 7 DAT)?
A: 48.3%

Q: What about the “Phytotoxicity Rating (% Crop Injury)” value ([4]; 1-hybrid (WT × IMI restorer, A205 hetero), 200 g ai/ha + 0.25% NIS, 21 DAT) of the same compound?
A: 73.3%

Q: What about the “Phytotoxicity Rating (% Crop Injury)” value ([4]; 3-hybrid (WT × IMI restorer, A205 hetero), 50 g ai/ha + 0.25% NIS, 7 DAT) of the same compound?
A: 11.7%

Q: What about the “Phytotoxicity Rating (% Crop Injury)” value ([4]; 3-hybrid (WT × IMI restorer, A205 hetero), 50 g ai/ha + 0.25% NIS, 21 DAT) of the same compound?
A: 11.7%

Q: And the “Phytotoxicity Rating (% Crop Injury)” value ([4]; 3-hybrid (WT × IMI restorer, A205 hetero), 100 g ai/ha + 0.25% NIS, 7 DAT)?
A: 46.7%

Q: What about the “Phytotoxicity Rating (% Crop Injury)” value ([4]; 3-hybrid (WT × IMI restorer, A205 hetero), 100 g ai/ha + 0.25% NIS, 21 DAT) of the same compound?
A: 46.7%

Q: And the “Phytotoxicity Rating (% Crop Injury)” value ([4]; 3-hybrid (WT × IMI restorer, A205 hetero), 200 g ai/ha + 0.25% NIS, 7 DAT)?
A: 60.0%

Q: And the “Phytotoxicity Rating (% Crop Injury)” value ([4]; 3-hybrid (WT × IMI restorer, A205 hetero), 200 g ai/ha + 0.25% NIS, 21 DAT)?
A: 76.7%

Q: And the “Phytotoxicity Rating (% Crop Injury)” value ([4]; 4-line (IMI Restorer, A205 homo), 50 g ai/ha + 0.25% NIS, 7 DAT)?
A: 6.7%

Q: What about the “Phytotoxicity Rating (% Crop Injury)” value ([4]; 4-line (IMI Restorer, A205 homo), 50 g ai/ha + 0.25% NIS, 21 DAT) of the same compound?
A: 5.0%

Q: What about the “Phytotoxicity Rating (% Crop Injury)” value ([4]; 4-line (IMI Restorer, A205 homo), 100 g ai/ha + 0.25% NIS, 7 DAT) of the same compound?
A: 6.7%

Q: And the “Phytotoxicity Rating (% Crop Injury)” value ([4]; 4-line (IMI Restorer, A205 homo), 100 g ai/ha + 0.25% NIS, 21 DAT)?
A: 6.7%

Q: What about the “Phytotoxicity Rating (% Crop Injury)” value ([4]; 4-line (IMI Restorer, A205 homo), 200 g ai/ha + 0.25% NIS, 7 DAT) of the same compound?
A: 18.3%

Q: What about the “Phytotoxicity Rating (% Crop Injury)” value ([4]; 4-line (IMI Restorer, A205 homo), 200 g ai/ha + 0.25% NIS, 21 DAT) of the same compound?
A: 15.0%

Q: What about the “Phytotoxicity Rating (% Crop Injury)” value ([4]; 6-hybrid (IMI CMS × IMI restorer, A205 homo), 50 g ai/ha + 0.25% NIS, 7 DAT) of the same compound?
A: 5.0%

Q: What about the “Phytotoxicity Rating (% Crop Injury)” value ([4]; 6-hybrid (IMI CMS × IMI restorer, A205 homo), 50 g ai/ha + 0.25% NIS, 21 DAT) of the same compound?
A: 0.0%

Q: And the “Phytotoxicity Rating (% Crop Injury)” value ([4]; 6-hybrid (IMI CMS × IMI restorer, A205 homo), 100 g ai/ha + 0.25% NIS, 7 DAT)?
A: 8.3%

Q: And the “Phytotoxicity Rating (% Crop Injury)” value ([4]; 6-hybrid (IMI CMS × IMI restorer, A205 homo), 100 g ai/ha + 0.25% NIS, 21 DAT)?
A: 3.3%

Q: And the “Phytotoxicity Rating (% Crop Injury)” value ([4]; 6-hybrid (IMI CMS × IMI restorer, A205 homo), 200 g ai/ha + 0.25% NIS, 7 DAT)?
A: 26.7%

Q: And the “Phytotoxicity Rating (% Crop Injury)” value ([4]; 6-hybrid (IMI CMS × IMI restorer, A205 homo), 200 g ai/ha + 0.25% NIS, 21 DAT)?
A: 21.7%

Q: What about the “Phytotoxicity Rating (% Crop Injury)” value ([4]; 7-hybrid (WT-CMS × IMI restorer, A205 hetero), 50 g ai/ha + 0.25% NIS, 7 DAT) of the same compound?
A: 13.3%

Q: And the “Phytotoxicity Rating (% Crop Injury)” value ([4]; 7-hybrid (WT-CMS × IMI restorer, A205 hetero), 50 g ai/ha + 0.25% NIS, 21 DAT)?
A: 3.3%

Q: And the “Phytotoxicity Rating (% Crop Injury)” value ([4]; 7-hybrid (WT-CMS × IMI restorer, A205 hetero), 100 g ai/ha + 0.25% NIS, 7 DAT)?
A: 43.3%

Q: And the “Phytotoxicity Rating (% Crop Injury)” value ([4]; 7-hybrid (WT-CMS × IMI restorer, A205 hetero), 100 g ai/ha + 0.25% NIS, 21 DAT)?
A: 40.0%

Q: What about the “Phytotoxicity Rating (% Crop Injury)” value ([4]; 7-hybrid (WT-CMS × IMI restorer, A205 hetero), 200 g ai/ha + 0.25% NIS, 7 DAT) of the same compound?
A: 56.7%

Q: And the “Phytotoxicity Rating (% Crop Injury)” value ([4]; 7-hybrid (WT-CMS × IMI restorer, A205 hetero), 200 g ai/ha + 0.25% NIS, 21 DAT)?
A: 78.3%

Q: What about the “Phytotoxicity Rating (% Crop Injury)” value ([4]; 8-hybrid (WT × GM40 restorer, A122 hetero), 50 g ai/ha + 0.25% NIS, 7 DAT) of the same compound?
A: 13.3%

Q: And the “Phytotoxicity Rating (% Crop Injury)” value ([4]; 8-hybrid (WT × GM40 restorer, A122 hetero), 50 g ai/ha + 0.25% NIS, 21 DAT)?
A: 6.7%

Q: What about the “Phytotoxicity Rating (% Crop Injury)” value ([4]; 8-hybrid (WT × GM40 restorer, A122 hetero), 100 g ai/ha + 0.25% NIS, 7 DAT) of the same compound?
A: 13.3%

Q: What about the “Phytotoxicity Rating (% Crop Injury)” value ([4]; 8-hybrid (WT × GM40 restorer, A122 hetero), 100 g ai/ha + 0.25% NIS, 21 DAT) of the same compound?
A: 11.7%

Q: What about the “Phytotoxicity Rating (% Crop Injury)” value ([4]; 8-hybrid (WT × GM40 restorer, A122 hetero), 200 g ai/ha + 0.25% NIS, 7 DAT) of the same compound?
A: 25.0%

Q: And the “Phytotoxicity Rating (% Crop Injury)” value ([4]; 8-hybrid (WT × GM40 restorer, A122 hetero), 200 g ai/ha + 0.25% NIS, 21 DAT)?
A: 28.3%

Q: What about the “Phytotoxicity Rating (% Crop Injury)” value ([4]; 9-line (GM40 restorer, A122 homo), 50 g ai/ha + 0.25% NIS, 7 DAT) of the same compound?
A: 1.7%

Q: What about the “Phytotoxicity Rating (% Crop Injury)” value ([4]; 9-line (GM40 restorer, A122 homo), 50 g ai/ha + 0.25% NIS, 21 DAT) of the same compound?
A: 0.0%

Q: And the “Phytotoxicity Rating (% Crop Injury)” value ([4]; 9-line (GM40 restorer, A122 homo), 100 g ai/ha + 0.25% NIS, 7 DAT)?
A: 5.0%

Q: What about the “Phytotoxicity Rating (% Crop Injury)” value ([4]; 9-line (GM40 restorer, A122 homo), 100 g ai/ha + 0.25% NIS, 21 DAT) of the same compound?
A: 0.0%
